According to patent publication US11542259B2, “Compounds for the treatment of kinase-dependent disorders” (Exelixis, Inc., priority 2018, dated 2023):
Where two headings read alike, the source gives them in different places.

Assay: Pharmacokinetic studies in male Sprague-Dawley rats
Type: in vivo
Details: rat; for clearance / half-life / Cmax: male, Sprague-Dawley, plasma; for half-life: read-out: t½
Protocol: Pharmacokinetic properties of select compounds were assessed in male Sprague-Dawley rats.
The non-GLP study was designed to investigate the pharmacokinetics of chosen compounds in plasma following an intravenous or oral dose administration to male Sprague Dawley rats. […]
Animals in the PO group were fasted overnight prior to dose administration. Food was returned following the collection of the 4-hour blood sample. Water was not withheld.
Immediately prior to dosing, the body weight of each animal was recorded. Doses (rounded to the nearest 0.001 mL) were calculated based on the pretreatment body weight (kg) and a dose volume of 2.5 mL/kg for intravenous administration and 5 mL/kg for oral administration. Intravenous formulations were administered via a jugular vein cannula. Immediately after dosing, the cannula was flushed with saline and the line was tied off. The oral dose was administered via a ball-tipped feeding needle. Dosing syringe volumes for administration were second-person verified prior to dosing and that volume along with the results for the concentration verification analysis were used to calculate the actual dose administered. Dosing syringes were weighed immediately prior to and immediately after dosing each animal as a gravimetric check.
Serial blood samples (approximately 200 μL per sample) were collected from each animal at 0.083 (IV dosing only), 0.25, 0.5, 1, 2, 4, 6 (PO dosing only), 8, 24, 32, 48, and 72 hours after dosing. Blood samples were collected into tubes containing K2EDTA via the non-dosing jugular-vein cannula (JVC), which was flushed with an approximately equal volume of saline following each collection.
Blood samples were stored on wet ice until processed to plasma by centrifugation (3500 rpm at 5° C. for 10 minutes) within 1 hour of collection. Plasma samples were transferred into matrix tubes and then stored in a −80° C. freezer.
Plasma samples and dose formulation samples were analyzed for the compounds of interest using liquid chromatography-tandem mass spectrometry (LC-MS/MS) methods. Pharmacokinetic parameter estimates were calculated from the individual animal plasma concentration-time data using the actual dose based on the analysis of the dosing formulations, nominal sampling times (all collections were within an acceptable range of target), and non-compartmental methods. The concentration-time data were analyzed to fit either an intravenous-bolus (IV) plasma analysis model (201) or extra-vascular (P0) dosing plasma analysis model (200) using the software WinNonlin Phoenix version 6.3 (Pharsight). The single-dose pharmacokinetic parameters assessed include, as appropriate: Cmax (observed peak or maximum concentration); Tmax (observed time of peak concentration); T1/2 (terminal half-life); Vz (volume of distribution based on the terminal phase); Vss (volume of distribution at steady state); AUCINF (area under the concentration-time curve computed from time zero to infinity); AUClast (area under the concentration-time curve computed from time zero to the time of the last quantifiable concentration); C0 (back-extrapolated concentration at time zero); CL (total body clearance); Vz/F (volume of distribution for extravascular administration based on the terminal phase); CL/F (total body clearance for extravascular administration); F % (bioavailability); and MRTlast (mean residence time).
Areas-under-the-plasma concentration-time curves (AUC) were estimated using the linear-log trapezoidal rule. The area through the time (Tlast) of the last observable concentration (Clast) is reported as AUClast. AUC extrapolated to infinity, (AUCINF) was estimated by adding AUClast and the ratio of Clast/λz, where λz is the terminal rate constant. Apparent terminal half-life (T1/2) was calculated as ln(2)/λz and determined using the slope of the log-linear terminal phase of the concentration-time curve, defined by a minimum of three plasma concentration-time points. […]

SMILES | clearance (IV (3 mg/kg)) | half-life (IV (3 mg/kg)) | Cmax (PO (3 mg/kg)) | half-life (PO (3 mg/kg)) | other results
CCNC(=O)c1cc2c(Oc3ccc(NC(=O)C4(C(=O)Nc5ccc(F)cc5)CC4)cc3)ccnc2cc1OC [Compound 9, 1-N-[4-[6-(ethylcarbamoyl)-7-methoxyquinolin-4-yl]oxyphenyl]-1-N′-(4-fluorophenyl)cyclopropane-1,1-dicarboxamide] | 2.53 mL/min/kg | 2.8 h | 3.9 µM | 2.6 h | F (PO (3 mg/kg)): F = 69%
COc1cc2nccc(Oc3ccc(NC(=O)C4(C(=O)Nc5ccc(F)cc5)CC4)cc3)c2cc1-c1ncc[nH]1 [Compound 191, 1-N′-(4-Fluorophenyl)-1-N-[4-[6-(1H-imidazol-2-yl)-7-methoxyquinolin-4-yl]oxyphenyl]cyclopropane-1,1-dicarboxamide] | – | – | – | – | clearance (IV (3.0 mg/kg)): 1.05 mL/min/kg; half-life (IV (3.0 mg/kg)): 9.9 h; Cmax (PO (3.1 mg/kg)): 4.6 µM; half-life (PO (3.1 mg/kg)): 6.8 h; F (PO (3.1 mg/kg)): F = 38%
CONC(=O)c1cc2c(Oc3ccc(NC(=O)C4(C(=O)Nc5ccc(F)cc5)CC4)cc3)ccnc2cc1OC [Compound 17, 1-N′-(4-fluorophenyl)-1-N-[4-[7-methoxy-6-(methoxycarbamoyl)quinolin-4-yl]oxyphenyl]cyclopropane-1,1-dicarboxamide] | – | – | – | – | clearance (IV (3.0 mg/kg)): 1.7 mL/min/kg; half-life (IV (3.0 mg/kg)): 3 h; Cmax (PO (3.2 mg/kg)): 3.4 µM; half-life (PO (3.2 mg/kg)): 4.5 h; F (PO (3.2 mg/kg)): F = 46%
COc1cc2nccc(Oc3ccc(NC(=O)C4(C(=O)Nc5ccc(F)cc5)CC4)cc3)c2cc1C(N)=O [Compound 7, 1-N-[4-(6-carbamoyl-7-methoxyquinolin-4-yl)oxyphenyl]-1-N′-(4-fluorophenyl)cyclopropane-1,1-dicarboxamide] | – | – | 8.8 µM | 7.3 h | clearance (IV (1 mg/kg)): 1.48 mL/min/kg; half-life (IV (1 mg/kg)): 3.1 h
CNC(=O)c1cc2c(Oc3ccc(NC(=O)C4(C(=O)Nc5ccc(F)cc5)CC4)cc3)ccnc2cc1OC [Compound 8, 1-N′-(4-fluorophenyl)-1-N-[4-[7-methoxy-6-(methylcarbamoyl)quinolin-4-yl]oxyphenyl]cyclopropane-1,1-dicarboxamide] | 0.717 mL/min/kg | 5.4 h | 11.4 µM | 7.1 h | –

More lines, main results first:

clearance (IV (3 mg/kg)) | half-life (IV (3 mg/kg)) | Cmax (PO (3 mg/kg)) | half-life (PO (3 mg/kg)) | SMILES | other results
8.52 mL/min/kg | 2.1 h | 0.7 µM | 2.9 h | COc1cc2nccc(Oc3ccc(NC(=O)C4(C(=O)Nc5ccc(F)cc5)CC4)cc3)c2cc1S(N)(=O)=O [Compound 206, 1-N′-(4-Fluorophenyl)-1-N-[4-(7-methoxy-6-sulfamoylquinolin-4-yl)oxyphenyl]cyclopropane-1,1-dicarboxamide] | F (PO (3 mg/kg)): F = 37%
– | – | 15.3 µM | 5.7 h | COc1cc2nccc(Oc3ccc(NC(=O)C4(C(=O)Nc5ccc(F)cc5)CC4)cc3)c2cc1-c1ncco1 [Compound 45, 1-N′-(4-fluorophenyl)-1-N-[4-[7-methoxy-6-(1,3-oxazol-2-yl)quinolin-4-yl]oxyphenyl]cyclopropane-1,1-dicarboxamide] | clearance (IV (1 mg/kg)): 0.683 mL/min/kg; half-life (IV (1 mg/kg)): 10.1 h
